Test results reported in patent US20030092197A1, “Proteins, genes and their use for diagnosis and treatment of cardiac response” (priority 2000, published 2003).
Blank lines part the entries; values can stand above or below the molecule they belong to.

Experiments:
[1] = system: Cardiac Response-Associated Features (CRFs) in blood; test: 2D gel electrophoresis of blood: CRFs differentially expressed in treated vs control animals (fold change); type: in vivo, rat
Procedure: Using the following procedure, proteins in blood samples from control animals and animals having cardiac response were separated by isoelectric focusing followed by SDS-PAGE and analyzed. Serial samples were taken over time. Parts 6.1.2 to 6.1.15 (inclusive) of the procedure set forth are hereby designated as the “Reference Protocol”
(§1) Cardiac response was induced by treatment with doxorubicin (DX) 1 mg/kg either alone or 30 min after an i.p. injection of dexrazoxane (ICRF) 50 mg/kg as described in the Examples infra. Treatment with ICRF alone was also administered. The treatment comprised of 7 weekly injections and samples were taken within 24 h after the final injection.
Samples from animals treated to induce cardiac reponse or treated with a cardioprotectant can be collected, prepared and analysed as described herein. In the studies provided herein, animals were administered an intravenous injection of either (i) doxorubicin 1 mg/kg alone; (ii) doxorubicin 1 mg/kg 30 min after an i.p. injection of dexrazoxane 50 mg/kg or (iii) treated with dexrazoxane 50 mg/kg alone. Control groups received saline only. 7 weekly injections were administered and samples were collected 24 h after the final injection. Plasma was collected for discovery of novel biomarkers of cardiac damage using 2-D gel electrophoresis and for measurement of cardiac specific troponin T levels. Tissues were collected for histopathological confirmation of cardiac tissue injury.
A protein assay (Pierce BCA Cat # 23225) was performed on each serum sample as received. Prior to protein separation, each sample was processed for selective depletion of certain proteins, in order to enhance and simplify protein separation and facilitate analysis by removing proteins that may interfere with or limit analysis of proteins of interest. See International Patent Application No. PCT/GB99/01742, filed Jun. 1, 1999, which is incorporated by reference in its entirety, with particular reference to the experimental protocol.
Removal of albumin, haptoglobin, transferrin and immunoglobin G (IgG) from blood (“blood depletion”) was achieved by an affinity chromatography purification step in which the sample was passed through a series of ‘Hi-Trap’ columns containing immobilized antibodies for selective removal of albumin, haptoglobin and transferrin, and protein G for selective removal of immunoglobin G. Two affinity columns in a tandem assembly were prepared by coupling antibodies to protein G-sepharose contained in Hi-Trap columns (Protein G-Sepharose Hi-Trap columns (1 ml) Pharmacia Cat. No. 17-0404-01). This was done by circulating the following solutions sequentially through the columns: (1) Dulbecco's Phosphate Buffered Saline (Gibco BRL Cat. No. 14190-094); (2) concentrated antibody solution; (3) 200 mM sodium carbonate buffer, pH 8.35; (4) cross-linking solution (200 mM sodium carbonate buffer, pH 8.35, 20 mM dimethylpimelimidate); and (5) 500 mM ethanolamine, 500 mM NaCl. A third (un-derivatised) protein G Hi-Trap column was then attached to the lower end of the tandem column assembly.
The chromatographic procedure was automated using an Akta Fast Protein Liquid Chromatography (FPLC) System such that a series of up to seven runs could be performed sequentially. The samples were passed through the series of 3 Hi-Trap columns in which the affinity chromatography media selectively bind the above proteins thereby removing them from the sample. Fractions (typically 3 ml per tube) were collected of unbound material (“Flowthrough fractions”) that eluted through the column during column loading and washing stages and of bound proteins (“Bound/Eluted fractions”) that were eluted by step elution with Immunopure Gentle Ag/Ab Elution Buffer (Pierce Cat. No. 21013). The eluate containing unbound material was collected in fractions which were pooled, desalted/concentrated by centrifugal ultrafiltration and stored to await further analysis by 2D PAGE. […]

[2] = system: spontaneous hypertensive rat; test: Severity of cardiac myocyte histopathologic lesions graded by light microscopy; type: in vivo; settings: scale of 0 to 3; 7 weekly injections; doxorubicin 1 mg/kg i.v., dexrazoxane 50 mg/kg i.p.
Procedure: as §1
Doxorubicin is a marketed anthracycline anticancer drug that causes a serious chronic cardiac toxicity. The spontaneous hypertensive rat is a useful animal model to study this toxicity. Furthermore by incorporating a cardioprotectant in the study design, the association of protein markers with the undesirable cardiotoxicity of the cardiotoxic agent is strengthened. Pretreatment with the intracellular iron chelating compound dexrazoxane (also referred to as ICRF-187) provides significant cardioprotection against clinical doxorubicin-induced cardiotoxicity and the drug has been FDA approved for this indication.
Samples from animals treated to induce cardiac reponse or treated with a cardioprotectant can be collected, prepared and analysed as described herein. […]
The severity of cardiac myocyte histopathologic lesions (cytoplasmic vacuolization and myofibrillar loss) was graded semiquantitatively by light microscopy on a scale of 0 to 3. […] Plasma cardiac troponin T concentrations were measured by chemiluminescent immunoassay. […]

- FC DX vs Control ([1]; CRF 2, pI 5.7, MW 12,367 Da, P 0.010): −10.29
- FC DX vs Control ([1]; CRF 4, pI 5.2, MW 15,589 Da, P 1.7E-04): −9.20
- FC DX vs Control ([1]; CRF 6, pI 4.6, MW 34,921 Da, P 1.0E-03): −7.77
- FC DX vs Control ([1]; CRF 9, pI 5.2, MW 15,591 Da, P 1.5E-03): −5.72
- FC DX vs Control ([1]; CRF 10, pI 5, MW 51,899 Da, P 0.007): −6.99
- FC DX vs Control ([1]; CRF 19, pI 5.7, MW 68,576 Da, P 3.7E-04): −5.12
- FC DX vs Control ([1]; CRF 44, pI 5.8, MW 52,589 Da, P 1.1E-03): 4.83
- FC DX vs Control ([1]; CRF 47, pI 4.4, MW 11,368 Da, P 0.010): 6.81
- FC DX vs Control ([1]; CRF 58, pI 6.8, MW 34,063 Da, P 0.003): 5.43
- FC DX vs Control ([1]; CRF 69, pI 5.2, MW 54,619 Da, P 0.005): −3.54
- FC DX vs Control ([1]; CRF 79, pI 6.8, MW 80,678 Da, P 1.6E-04): −4.51
- FC DX vs Control ([1]; CRF 82, pI 7.6, MW 77,393 Da, P 2.9E-04): −9.06
- FC DX vs Control ([1]; CRF 84, pI 4.8, MW 73,524 Da, P 1.1E-03): −8.60
- FC DX vs Control ([1]; CRF 90, pI 5.2, MW 67,336 Da, P 0.005): −3.93
- FC DX vs Control ([1]; CRF 92, pI 6.0, MW 63,037 Da, P 0.006): −8.26
- FC DX vs Control ([1]; CRF 103, pI 5, MW 56,471 Da, P 0.007): −6.02
- FC DX vs Control ([1]; CRF 104, pI 7, MW 53,989 Da, P 0.003): −11.48
- FC DX vs Control ([1]; CRF 112, pI 7.1, MW 47,499 Da, P 0.006): 4.92
- FC DX vs Control ([1]; CRF 115, pI 7.1, MW 38,136 Da, P 2.3E-04): 3.55
- FC DX vs Control ([1]; CRF 118, pI 6.5, MW 33,117 Da, P 3.4E-04): −4.82
- FC DX vs Control ([1]; CRF 122, pI 5.3, MW 24,915 Da, P 0.003): 3.98
- FC DX vs Control ([1]; CRF 127, pI 4.8, MW 23,325 Da, P 0.006): 5.25
- FC DX vs Control ([1]; CRF 129, pI 5.4, MW 17,765 Da, P 0.010): 4.29
- FC DX vs Control ([1]; CRF 130, pI 4.8, MW 14,082 Da, P 0.009): −4.56
- FC DX vs Control ([1]; CRF 131, pI 4.3, MW 11,917 Da, P 0.009): 4.28
- FC DX vs Control ([1]; CRF 134, pI 5.1, MW 51,125 Da, P 0.009): 7.99
- FC DX vs Control ([1]; CRF 135, pI 7.3, MW 85,176 Da, P 1.2E-05): 4.77
- FC DX vs Control ([1]; CRF 142, pI 5.4, MW 105,458 Da, P 0.007): −5.30
- FC DX vs Control ([1]; CRF 144, P 3.7E-04): −3.70
- FC DX vs Control ([1]; CRF 145, P 4.5E-04): 3.68
- FC DX vs Control ([1]; CRF 146, P 6.2E-04): −4.19
- FC DX vs Control ([1]; CRF 147, P 0.002): −4.61
- FC DX vs Control ([1]; CRF 148, P 0.002): −5.11
- FC DX vs Control ([1]; CRF 149, P 0.002): −3.78
- FC DX vs Control ([1]; CRF 150, pI 4.11, MW 47828 Da, P 0.003): −8.39
- FC DX vs Control ([1]; CRF 151, P 0.003): 3.50
- FC DX vs Control ([1]; CRF 152, P 0.003): −3.97
- FC DX vs Control ([1]; CRF 153, P 0.004): −4.57
- FC DX vs Control ([1]; CRF 154, pI 7.79, MW 55965 Da, P 0.004): 5.39
- FC DX vs Control ([1]; CRF 155, P 0.004): −3.84
- FC DX vs Control ([1]; CRF 156, pI 6.89, MW 78237 Da, P 0.005): −3.99
- FC DX vs Control ([1]; CRF 157, P 0.005): −3.54
- FC DX vs Control ([1]; CRF 158, P 0.005): −4.59
- FC DX vs Control ([1]; CRF 159, P 0.006): 4.04
- FC DX vs Control ([1]; CRF 160, P 0.006): −6.43
- FC DX vs Control ([1]; CRF 161, P 0.006): 4.58
- FC DX vs Control ([1]; CRF 162, P 0.006): −4.37
- FC DX vs Control ([1]; CRF 163, P 0.006): 5.15
- FC DX vs Control ([1]; CRF 164, pI 4.51, MW 72286 Da, P 0.007): 4.75
- FC DX vs Control ([1]; CRF 165, P 0.007): −5.52
- FC DX vs Control ([1]; CRF 166, P 0.008): −3.86
- FC DX vs Control ([1]; CRF 167, P 0.008): 3.77
- FC DX vs Control ([1]; CRF 168, P 0.009): 4.20
- average lesion score (cytoplasmic vacuolization and myofibrillar loss) [2]: 2.1
Compound: COc1cccc2c1C(=O)c1c(O)c3c(c(O)c1C2=O)C[C@@](O)(C(=O)CO)C[C@@H]3O[C@H]1C[C@H](N)[C@H](O)[C@H](C)O1 [DX, doxorubicin]

- FC ICRF vs Control ([1]; CRF 28, pI 5.7, MW 26,409 Da, P 0.004): −2.93
- FC ICRF vs Control ([1]; CRF 56, pI 4.9, MW 48,318 Da, P 0.004): 3.12
- FC ICRF vs Control ([1]; CRF 162, P 0.003): −3.47
- average lesion score (cytoplasmic vacuolization and myofibrillar loss) [2]: 0
Compound: C[C@@H](CN1CC(=O)NC(=O)C1)N1CC(=O)NC(=O)C1 [ICRF, dexrazoxane]
